In paper PMC9486805, “Identification of a Phage Display-Derived Peptide Interacting with the N-Terminal Region of Factor VII Activating Protease (FSAP) Enables Characterization of Zymogen Activation” (ACS Chemical Biology, 2022):

How the values were obtained:
thrombin = test: Specificity: thrombin; assay type: biochemical; settings: thrombin 20 nM; peptide 0-50 μM; CS01 (Fig S7)
Procedure: Fig S7. […]
Pro-thrombin (100 nM) and thrombin (20 nM) […]
(§1) Bend, IN, USA) except plasminogen and FSAP, which were isolated in house; and pro-uPA was from Grünenthal (Stolberg, Germany). All chromogenic substrates were from Hyphen Biomed (Neuville Sur Oise, France). Experiments were carried out in TBS with Tween-20 (0.1 % wt/ vol) BSA (0.3% wt/vol) and CaCl2 (2 mM). Absorbance at 405 nm was measured over time and the enzyme activity is depicted was measured in duplicates (mean + or -range) and similar results were obtained in 3

[1] = test system: extrinsic pathway of coagulation; test: Plasma clotting assay, diluted prothrombin time (dPT); assay type: biochemical, human; settings: prothrombin-deficient citrated plasma 1:5, 10 mM CaCl2; peptide 0–25 μM, 60 min 37 °C; three experiments (Fig 6B)
Procedure: Figure 6 Pro-FSAP activation and clotting in plasma by NNKC9/41: (A) citrate plasma (1:12 dilution) from donors with WT/WT, WT/MI, and MI/MI genotypes and WT-FSAP-deficient plasma (FSAP-DP) were compared. Substrate turnover was monitored after addition of NNKC9/41 or the Ser–Ser linear peptide (25 μM each). Results are shown as mean + range of duplicate wells. (B) Pooled prothrombin-deficient citrated plasma (1:5 dilution) was recalcified with 10 mM CaCl2 and incubated with NNKC9/41 or scrambled control peptide (0–25 μM each) for 60 min at 37 °C in the presence or absence of the FSAP-inhibitory MA-FSAP-38C7 (5 μg/mL). Initiation of clotting was achieved by adding the tissue factor/phospholipid and prothrombin complex concentrate. Clotting time was measured as diluted prothrombin time (dPT) in seconds. Data are the mean of three independent experiments. […]
Prothrombin-deficient citrated pool plasma (Haemochrom Diagnostica, diluted 1:5 in HBS, pH 7.4) was recalcified with 10 mM CaCl2 and incubated with peptides for 60 min at 37 °C in the presence or absence of the FSAP-inhibitory MA-FSAP-38C7 (5 μg/mL). […] Clot formation was measured optically at 405 nm in a plate reader (Tecan, Crailsheim, Germany). The time from starting the reaction to 50% maximum clot turbidity was measured as diluted prothrombin time (dPT) in seconds.

plasminogen = test: Specificity towards pro-enzymes: plasminogen; assay type: biochemical; settings: plasminogen 50 nM; peptide 0-50 μM; CS41; duplicates, 3 experiments (Fig S7)
Procedure: Fig S7. […]
as §1

Sequence: CRGAMWMYKRC [NNKC9/41]
- effect on activity (thrombin): did not influence the activity
- clotting time (diluted prothrombin time) [1]: significant effect on lowering the clotting time
- effect on activity (plasminogen): did not influence the activity
